Reference: patent US4788304A, “Phospholipase A2 inhibitors” (American Home Products Corporation, priority 1987, dated 1988)
Like-named read-outs stand apart in the source and are kept apart here.

Columns and labels:
[1] = test system: Naja mocambique mocambique PLA2; experiment: Vascular cutaneous permeability induced by snake venom PLA2 in guinea pigs; type: in vivo, guinea pig (Hartley); conditions: for % Inhibition (PLA2-induced vascular permeability): standard drug
human platelet PLA2 = target: T1, human platelet PLA2 (Homo sapiens, UniProt P14555); experiment: Inhibition of cell free human platelet PLA2 (hydrolysis of [3H]-AA labelled E. coli phospholipids); type: biochemical; conditions: for inhibition at 50 µM: pH 7.4, 37° C.
T1 construct: The PLA2 enriched supernatant fluid is removed and the amount of protein is determined by the Lowry method; from tissue; host or cells: expired human platelets from the blood bank (acid extract, not purified)
T1 sequence (P14555 21-144): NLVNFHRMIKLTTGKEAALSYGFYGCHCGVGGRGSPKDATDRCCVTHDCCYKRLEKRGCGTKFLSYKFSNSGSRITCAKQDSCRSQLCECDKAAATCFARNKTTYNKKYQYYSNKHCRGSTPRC
Procedure: The ability of the compounds in the scope of the invention to inhibit the activity of cell free human platelet PLA2 enzyme is measured in the following in vitro assay.
E. coli, cultured to exponential growth, are sedimented for 15 minutes at 10,000 g and resuspended in sterile isotonic saline (1-3 ml). 10-25 μCi uniformly labeled [^3 H]-arachidonic acid (AA) is added to a sterile flask, evaporated by N2 and resolubilized with 0.3 ml 20% fatty acid-free bovine serum albumen (BSA). 75-100 ml of nutrient broth and 1 ml E. coli are then added to each flask and incubated for 2-3 hours at 37° C. [^3 H]-AA labelled E. coli are then sedimented, suspended in saline and added to fresh nutrient broth and incubated for 1.5 hours at 37° C. to complete [^3 H]-AA incorporation into the phospholipids. After overnight refrigeration of cultures, E. coli are again sedimented, suspended in saline and autoclaved for 15 minutes at 120° C. E. coli cultures are washed twice with saline (first wash contains 1 % BSA) and resuspended in saline. Non-labelled E. coli cultures are also prepared in the same manner. Cell number is determined by measuring the optical density at […] (3×10 cell/ml=1 O.D.). The amount of radioactivity associated with cells is determined by counting a defined volume of cell suspension. The specific activity is subsequently adjusted by adding non-labelled E. coli to yield 2-4×10 cpm per 1×10^10 E. coli.
Expired human platelets from the blood bank are centrifuged for 15 minutes at 200 g to obtain a platelet rich fraction and to remove the red blood cells. Platelets are sedimented for 15 minutes at 2500 g and the plasma is removed before adding cold 0.18N H2 SO4 (4 ml/unit). Platelets are homogenized, incubated for 1 hour at 4° C., homogenized again and centrifuged for 15 minutes at 10,000 g. The PLA2 enriched supernatant fluid is removed and the amount of protein is determined by the Lowry method. The preparation is divided into various portions and stored at -20° C.
The assay measures the hydrolysis of E. coli membrane phospholipids and the release of free [^3 H]-AA from the C-2 position of phospholipids by human platelet PLA2. To ice cold 15×100 mm test tubes, the following additions are made; 2.5×10^8 E. coli (equivalent to 5 nmol phospholipid), 5 mM Ca++, 100 mM Tris buffer (pH=7.4), 100 μg platelet extract (or an amount to produce 20-30% hydrolysis), drug or vehicle. Incubation are carried out at 37° C. in a shaking water bath for 30 minutes. The reaction is terminated by the addition of 2 volumes of tetrahydrofuran (THF) and the mixture is vortexed. Hydrolyzed [^3 H]-AA is separated from unhydrolyzed phospholipid by solid phase extraction using Bond elute NH2 columns (Analytichem Intermat.). Columns are conditioned with 0.5 ml THF followed by 0.5 ml THF:H2 O (2.0:0.1 ml v/v). Samples are loaded onto columns and hydrolyzed [^3 H]-AA is eluted with 1 ml THF:glacial acetic acid (98.0:2.0 ml v/v). The elutant is transferred to vials, 10 ml Optifluor is added and the radioactivity is determined by liquid scintillation counting.
Treatments are corrected for non-enzymatic hydrolysis by subtracting the dpms in treatments containing no enzyme. Mean [^3 H]-AA dpm is determined and a percent inhibition relative to vehicle treated samples is calculated.
The percent hydrolysis is calculated by the following equation: [formula]

[2] = test system: AA-induced mouse ear edema; experiment: Arachidonic acid (AA)-induced murine ear edema test; type: in vivo, mouse (Swiss Webster); conditions: 1 mg/ear, 30 min prior to AA, measured 1 h after AA
[3] = test system: rat carrageenan paw edema; experiment: Rat carrageenan paw edema; type: in vivo, rat (Sprague-Dawley); conditions: 3 h; for % Inhibition of paw edema: at 50 mg/kg (peroral), 1 h prior to carrageenan
Procedure: The compounds in the scope of the invention are further tested in the rat carrageenan paw edema to determine their ability to inhibit the acute inflammatory response.
[…] male Sprague-Dawley rats, in groups of 6 animals are injected subcutaneously in the right paw with 0.1 ml of 1% carrageenan at zero time. Mercury plethysmographic readings (ml) of the paw are made at zero time and 3 hours later. Test compounds are suspended or dissolved in 0.5% methylcellulose and given perorally 1 hour prior to carrageenan administration.
The increase in paw volume (edema in ml.) produced by the carrageenan is measured. Paw edema is calculated (3 hour volume minus zero time volume), and percent inhibition of edema is determined. Unpaired Student's t-test is used to determine statistical significance.

[4] = test system: synthesis of LTB4 by rat glycogen-elicited polymorphonuclear leukocytes (PMN); experiment: Inhibition of LTB4 synthesis by rat glycogen-elicited polymorphonuclear leukocytes (PMN); type: cell-based, rat (female Wistar); conditions: Leukocyte, A23187-stimulated rat PMN
[5] = test system: synthesis of the arachidonic acid cyclooxygenase oxidation product TxB2; experiment: Inhibition of TxB2 synthesis (cyclooxygenase product) by rat polymorphonuclear leukocytes; type: cell-based, rat (female Wistar); conditions: Leukocyte, A23187-stimulated rat PMN
[6] = test system: TPA-induced mouse ear edema; experiment: TPA-induced murine ear edema test; type: in vivo, mouse (Swiss Webster); conditions: 1 mg/ear, 30 min after TPA, measured 4 h after TPA
[7] = test system: oxazolone-induced contact hypersensitivity in the mouse ear; experiment: Oxazolone-induced contact hypersensitivity in the mouse ear; type: in vivo, mouse (Swiss Webster); conditions: dosed at 1 mg/ear
Procedure: The assay of this Example measures the ability of the compounds in the scope of the invention to inhibit oxazolone-induced contact hypersensitivity in the mouse ear.
Female, Swiss Webster mice (8 weeks old) are placed into groups of 6 and the abdominal area of each is shaved. The mice are sensitized to oxazolone (4-ethoxymethylene-2-phenyl-oxazol-5-one) by applying 100 μl of a 2% solution in 95% alcohol directly onto the shaved abdomen using an automatic pipette and rubbing the residual oxazolone into the skin with a round wooden stick. Six days after sensitization each mouse is challenged by applying 20 μl of a 2% oxazolone solution in 95% alcohol to the right ear (10 μl on each side) and 20 μl of alcohol alone to the left ear. Compounds for topical applications are prepared in acetone and administered to the right ear 30 min after challenge or 30 min prior to and 5 h after challenge; acetone (vehicle) is applied to the left ear. Compounds for oral administration are suspended in 0.5 ml of 0.5% methyl cellulose and given ten min prior to challenge. Ear thickness of both ears is measured in mm×10^-2 at 24 and 48 h after challenge using an Oditest caliper. Edema is calculated by subtracting the left ear thickness from the right ear thickness. Drug effects are determined by calculating the percentage change from control for each time period.

[8] = cell free human platelet PLA2, pH 7.4, 37° C., 30 min, read-out: IC50 (PLA2)

| SMILES | inhibition at 50 µM (human platelet PLA2; 30 min) [%] | IC50 (human platelet PLA2; [8]) [µM] | inhibition at 10 µM [4] [%] | inhibition at 10 µM [5] [%] | further results |
| --- | --- | --- | --- | --- | --- |
| NC1=NN(c2cccc(C(F)(F)F)c2)CC1 [BW 755c] | – | – | – | – | % Inhibition (PLA2-induced vascular permeability) ([1]; 200 mg/kg p.o.): 65.3% |
| COC(=O)C1(C(F)CCCCc2ccccc2)CO1 (single isomer, unassigned) [Example 1 (isomer A), 2-(1-Fluoro-5-phenylpentyl)-2-oxiranecarboxylic acid methyl ester (isomer A)] | 88 | 2.6 | – | – | – |
| CCOC(=O)C1(CCCCCc2ccc(Cl)cc2)CO1 (centres unmarked) [Example 10, 2-[5-(4-Chlorophenyl)pentyl]-2-oxiranecarboxylic acid ethyl ester] | 97.2 | 1.6 | 23 | 4 | Mouse Ear Edema Assay, % Change from Control, TOPICAL, AA [2]: -73%; % Inhibition of paw edema [3]: 42%; % Inhibition, iv at 100 mg/kg (PLA2-induced vascular permeability) [1]: 24.1%; Mouse Ear Edema Assay, % Change from Control, TOPICAL, TPA [6]: -45% |
| COC(=O)C1(C(=O)CCCCc2ccccc2)CO1 (centres unmarked) [Example 9, 2-(5-Phenyl-1-oxopentyl)-2-oxiranecarboxylic acid methyl ester] | 81.8 | 3.2 | 7 | 1 | % Inhibition (oxazolone contact hypersensitivity) [7]: 22.0%; % Inhibition of paw edema [3]: 27% |
| O=C(CBr)c1ccc(Br)cc1 [para-Bromophenacyl bromide, reference compound] | – | – | – | – | IC50 (human platelet PLA2): 23.7 µM |
| COC(=O)C1(C(F)=CCCCOc2ccc(Cl)cc2)CO1 (centres unmarked) [6 (fluoro-vinyl compound), 2-[5-(4-Chlorophenoxy)-1-fluoro-1-pentenyl]-2-oxiranecarboxylic acid methyl ester] | 99.5 | 3 | 15 | 33 | % Inhibition of paw edema [3]: 26%; % Inhibition, iv at 100 mg/kg (PLA2-induced vascular permeability) [1]: 32% |
| C[C@@H]1C[C@H]2[C@@H]3CCC4=CC(=O)C=C[C@]4(C)[C@@]3(F)[C@@H](O)C[C@]2(C)[C@@]1(O)C(=O)CO [Dexamethasone] | – | – | – | – | % Inhibition (PLA2-induced vascular permeability) ([1]; 10 mg/kg p.o.): 49.0% |
| COC(=O)C1(C(F)(F)CCCCOc2ccc(Cl)cc2)CO1 (centres unmarked) [6 (gem-difluoro compound), 2-[5-(4-Chlorophenoxy)-1,1-difluoropentyl]-2-oxiranecarboxylic acid methyl ester] | 91.1 | 8.4 | 7 | 44 | – |
| CN(C)CCC(c1ccc(Cl)cc1)c1ccccn1 (centres unmarked) [Chlorpheniramine] | – | – | – | – | % Inhibition (PLA2-induced vascular permeability) ([1]; 2 mg/kg p.o.): 45.0% |
| COC(=O)C1(C(F)CCCCCOc2ccc(Cl)cc2)CO1 (single isomer, unassigned) [3 (isomer A), 2-[6-(4-Chlorophenoxy)-1-fluorohexyl]-2-oxiranecarboxylic acid methyl ester (isomer A)] | 84.6 | 19.2 | – | – | – |
| CCCCC/C=C\C/C=C\C/C=C\C/C=C\CCCC(=O)O [Arachidonic Acid, reference compound] | – | – | – | – | IC50 (human platelet PLA2): 10.1 µM |
| COc1ccc2c(c1)c(CC(=O)O)c(C)n2C(=O)c1ccc(Cl)cc1 [Indomethacin, reference compound] | – | – | – | – | ED50 ([3]; Rattus norvegicus, po, read-out: Oral ED50 (95% C.L.)): 3.7 mg/kg; % Inhibition (PLA2-induced vascular permeability) ([1]; 50 mg/kg p.o.): 15.0% |
| COC(=O)C1(C(=O)CCCCCOc2ccc(Cl)cc2)CO1 (centres unmarked) [Example 7A, 2-[6-(4-Chlorophenoxy)-1-oxohexyl]-2-oxiranecarboxylic acid methyl ester] | 88.4 | 7.1 | 30 | 38 | Mouse Ear Edema Assay, % Change from Control, TOPICAL, AA [2]: -59%; % Inhibition of paw edema [3]: 53%; Mouse Ear Edema Assay, % Change from Control, TOPICAL, TPA [6]: -70% |
| COC(=O)C1(C(F)CCCCOc2ccc(Cl)cc2)CO1 (single isomer, unassigned) [2 (isomer A), 2-[5-(4-Chlorophenoxy)-1-fluoropentyl]-2-oxiranecarboxylic acid methyl ester (isomer A)] | 83.8 | 13.8 | – | – | – |
| COC(=O)C1(C(F)CCCCCOc2ccc(Cl)cc2)CO1 (single isomer, unassigned) [Example 3, 2-[6-(4-Chlorophenoxy)-1-fluorohexyl]-2-oxiranecarboxylic acid methyl ester] | – | – | 17 | 34 | – |
| COC(=O)C1(C(F)(F)CCCCCOc2ccc(Cl)cc2)CO1 (centres unmarked) [7 (gem-difluoro compound), 2-[6-(4-Chlorophenoxy)-1,1-difluorohexyl]-2-oxiranecarboxylic acid methyl ester] | 82 | 11.3 | 58 | 43 | – |
